Measurements: PMC13289030, “Qualification of the human Reconstructed Intestine Micronuclei Cytome assay for site-of-contact genotoxic hazard identification” (NAM journal, 2025)
Values after ≈ are worked out from the molar mass of the structure shown. “Also recorded” adds a separate entry of the source. Where two headings read alike, the source gives them in different places. Where a SMILES comes first, the peptide text is derived from it.

Legend:
[1] = test system: EpiIntestinal™ microtissues; details: cited from earlier work
[2] = test system: EpiIntestinal™ microtissues
[3] = cited from earlier work
[4] = Test material solubility limit for top test concentration; assay type: physicochemical; details: for solubility: read-out: Concentration above which test material is insoluble (top test concentration)
[5] = test system: EpiIntestinal™ microtissues; test: Cytotoxicity / relative cell count (RCC) of dissociated EpiIntestinal microtissues; details: for Cytotoxicity / cell viability (result in words) / Cytotoxicity: 10-day exposure; for Cytotoxicity / cell viability (result in words): tested doses
[6] = test system: EpiIntestinal™ microtissues; test: RICyt assay: micronuclei (MN) cytome scoring in EpiIntestinal microtissues after 10-day repeated apical exposure
[7] = test system: topoisomerase II; design: method as in Maralhas et al., 2006; details: ref Maralhas et al., 2006; cited from earlier work
[8] = published genotoxic profile; ref Kirkland et al., 2016; EFSA; cited from earlier work
[9] = test system: EpiIntestinal™ microtissues; remark: listed apart in the source
[10] = test system: Caco-2; details: ref Schrenk et al., 2022; cited from earlier work
[11] = 10-day exposure, relative to solvent control and historical negative control range (≤2.4 %)
[12] = 10-day exposure, positive = significant, dose-dependent %MN increase above historical negative range (>2.4 %)
[13] = published genotoxic profile, ref Kirkland et al., 2016, EFSA

## c1ccc2c(c1)cc1ccc3cccc4ccc2c1c34 [benzo(a)pyrene]
[1]
  MN induction / genotoxicity in RICyt platform: genotoxicity was successfully detected

## CCOS(C)(=O)=O [Ethyl methanesulfonate]
[2]
  Cytotoxicity / cell viability (result in words): no observable cytotoxicity
[3]; in vivo
  In vivo genotoxicity tests: + MN, comet and CA

## Nc1nc(N)nc(N)n1 [Melamine]
[4]; in solvent/culture media
  solubility: 500 µg/mL (≈ 3960 µM)
[5]
  Cytotoxicity / cell viability (result in words): No genotoxicity nor cytotoxicity were detected
[6]; [11]
  %MN induction (result in words): not significant and below the historical negative range

## COc1cc(/C=C/C(=O)CC(=O)/C=C/c2ccc(O)c(OC)c2)ccc1O [Curcumin]
[4]; in solvent/culture media
  solubility: 50 µg/mL (≈ 136 µM)
[5]; at higher doses / top two concentrations
  Cytotoxicity: 15–20%
[6]; 10-day exposure
  Karyorrhectic cells (cytome analysis): increase in karyorrhectic cells
[6]; [11]
  %MN induction (result in words): no significant formation of MN

## CC(C)=CCC/C(C)=C/CC/C(C)=C/CC/C(C)=C/CC/C(C)=C/CC/C(C)=C/CC/C(C)=C/CC1=C(C)C(=O)c2ccccc2C1=O [Menaquinone 7]
[4]; in solvent/culture media
  Concentration above which test material is insoluble (top test concentration): 1000 µg/mL
[5]
  Cytotoxicity / cell viability (result in words): no significant MN induction nor cytotoxicity
[6]; 10-day exposure
  Other nuclear anomalies (cytome analysis): not detected
[6]; [11]
  %MN induction (result in words): no significant MN induction

## CC[C@]1(O)C[C@@H]2CN(CCc3c([nH]c4ccccc34)[C@@](C(=O)OC)(c3cc4c(cc3OC)N(C)[C@H]3[C@@](O)(C(=O)OC)[C@H](OC(C)=O)[C@]5(CC)C=CCN6CC[C@]43[C@@H]65)C2)C1 [vinblastine]
[1]; previous publication, ref Lim et al., 2022
  MN induction / genotoxicity in RICyt platform: positive induction of MN

## C=CCc1ccc(O)c(OC)c1 [Eugenol]
[7]
  Topoisomerase II activity: could inhibit topoisomerase II activity
[3]; in vivo
  Genotoxicity in vivo: genotoxic positive
  In vivo genotoxicity tests: + MN only at very high doses. Equivocal
[5]
  Cytotoxicity / cell viability (result in words): cytotoxicity observed in the tested doses
[6]; 10-day exposure
  Karyorrhectic cells (cytome analysis): consistent increase in karyorrhectic cell population
[6]; 10-day exposure, relative to solvent control and historical negative control range (≤2.4 %), listed as EUG
  %MN induction (result in words): very close to the established 95 % upper confident limits
[6]; [12]
  RICyt outcome (genotoxic classification): Equivocal

## COC(=O)[C@H](Cc1ccccc1)NC(=O)[C@@H](N)CC(=O)O [Aspartame] (H-Asp-Phe-OMe)
[3]; [13]
  In vivo genotoxicity tests: - MN, comet and CA
[8]
  In vitro genotoxicity tests: - CA and MN - SCE
[5]
  Cytotoxicity / cell viability (result in words): did not produce significant %MN and cytotoxicity
[6]; [11]
  %MN induction (result in words): did not produce significant %MN
[6]; [12]
  RICyt outcome (genotoxic classification): Negative
[6]; 10-day exposure, positive = significant, dose-dependent %MN increase above historical negative range (>2.4 %), listed as aspartame
  RICyt outcome (genotoxic classification): clear negative

## CCN(N=O)C(N)=O [N-Ethyl-N-nitrosourea]
[3]; [13]
  In vivo genotoxicity tests: + CA, MN, comet
[8]
  In vitro genotoxicity tests: + MN, CA, MLA, HPRT mutations and UDS
[5]; across tested concentrations (ENU up to 150 µg/ml; GA up to 25 µg/ml)
  Cytotoxicity: ≤ 15%
[6]; 10-day exposure
  Karyorrhectic cells (cytome analysis): non-significant increase in karyorrhectic cells
[6]; [11]
  %MN induction (result in words): statistically significant increases in MN in a dose dependent manner
[6]; 10-day exposure, relative to solvent control and historical negative control range (≤2.4 %), listed as ENU
  %MN induction (result in words): positive induction of MN

## CC(=O)O[C@H]1C(=O)[C@@]2(C)[C@H]([C@H](OC(=O)c3ccccc3)[C@]3(O)C[C@H](OC(=O)[C@H](O)[C@@H](NC(=O)c4ccccc4)c4ccccc4)C(C)=C1C3(C)C)[C@]1(OC(C)=O)CO[C@@H]1C[C@@H]2O [Paclitaxel]
[3]; [13]
  In vivo genotoxicity tests: + MN in bone marrow and liver
[8]
  In vitro genotoxicity tests: + MN, polyploidy in a CA test and in MLA
[5]
  Cytotoxicity / cell viability (result in words): decrease in cell viability at the top two exposed doses
[6]; 10-day exposure
  Karyorrhectic cells (cytome analysis): non-significant but dose dependent increase in karyorrhectic cell population
[6]; [11]
  %MN induction (result in words): statistically significant increase in %MN; also recorded: positive induction of MN
[6]; [12]
  RICyt outcome (genotoxic classification): true positive

## O=Cc1ccc(CO)o1 [5-Hydroxymethyl furfural, 5-Hydroxymethylfurfural]
[3]; [13]
  In vivo genotoxicity tests: - MN
[8]
  In vitro genotoxicity tests: + Comet and SCE - for MN
[5]
  Cytotoxicity / cell viability (result in words): Cytotoxicity was observed with increasing doses
[6]; 10-day exposure
  Karyorrhectic cells (cytome analysis): increase in karyorrhectic cell population though not statistically significant
[6]; [11]
  %MN induction (result in words): consistently low without exceeding the historical negative range
[6]; [12]
  RICyt outcome (genotoxic classification): Negative
[6]; 10-day exposure, positive = significant, dose-dependent %MN increase above historical negative range (>2.4 %), listed as 5-HMF
  RICyt outcome (genotoxic classification): clear negative

## C/C=C\c1cc(OC)c(OC)cc1OC [β-asarone]
[9]
  RICyt outcome (genotoxic classification): Negative
[2]
  Cytotoxicity / cell viability (result in words): Increases in cytotoxicity at the top two doses
[3]; [13]
  In vivo genotoxicity tests: MN negative
[8]
  In vitro genotoxicity tests: + MN, comet and SCE

## CC(C)[C@@H]1CC[C@@H](C)C[C@H]1O [d,l-Menthol, D,L-MENTHOL]
[4]
  Concentration above which test material is insoluble (top test concentration): 500 µg/mL
[9]
  %MN induction (result in words): low level of MN which fell within 95 % confident limit of the historical negative control
[2]
  Cytotoxicity / cell viability (result in words): no significant impact on cell viability
[3]; in vivo
  In vivo genotoxicity tests: -

## C[C@H]1C(=O)O[C@@H]2CCN3CC=C(COC(=O)[C@](C)(O)[C@]1(C)O)[C@H]23 [Monocrotaline]
[9]; human
  %MN increment: 2.53%
[2]
  Cytotoxicity / cell viability (result in words): without obvious cytotoxicity
[3]; in vivo
  In vivo genotoxicity tests: + DNA adduct, DNA crosslinking and MN
[10]
  Gut permeability: moderate gut permeability

## Aflatoxin B1
[3]; in vivo
  In vivo genotoxicity tests: + MN, CA, UDS − comets
[5]
  Loss/reduction in cell viability: ~40%
[6]
  %MN induction (result in words): significant and dose-dependent formation of MN
  RICyt outcome (genotoxic classification): genotoxicity was successfully detected; also recorded: Positive
